From patent US10329284B2, “Ester prodrugs of gamma-lactams and their use” (ALLERGAN, INC., priority 2014, dated 2019)

Experiment: Aqueous stability upon storage in aqueous solution, evaluated by HPLC
Assay type: physicochemical
Description: The compound of Formula (IIIa):
[drawing 31] was selected as an exemplary compound for evaluation of aqueous stability. In particular, the aqueous stability of the compound of Formula (Ma) upon storage in aqueous solution at several temperatures for several weeks was evaluated by HPLC using the following conditions: Column: BioWidePore C18 (SUPELCO), 4.6 mm×25 cm, 5 μm Mobile Phase A: 0.1% (V/V) trifluoroacetic acid (TFA) in di-water, 0.8 micron filtered Mobile Phase B: 100% acetonitrile, 0.8 micron filtered Column temp: Ambient Injection volume: 30 μL UV Detection: 214 nm Flow: 1.0 mL/min Run time: 25 minutes Sample diluent: 50% acetonitrile in di-water Gradient condition: See Table 1

% Recovery vs. T0 (storage 25° C., T0)	% Recovery vs. T0 (storage 25° C., Week-1)	% Recovery vs. T0 (storage 25° C., Week-2)	% Recovery vs. T0 (storage 25° C., Week-4)	% Recovery vs. T0 (storage 40° C., T0)	% Recovery vs. T0 (storage 40° C., Week-1)	% Recovery vs. T0 (storage 40° C., Week-2)	% Recovery vs. T0 (storage 40° C., Week-4)	% Recovery vs. T0 (storage 60° C., T0)	% Recovery vs. T0 (storage 60° C., Week-1)	% Recovery vs. T0 (storage 60° C., Week-2)	% Recovery vs. T0 (storage 60° C., Week-4)	SMILES
100.0%	100.8%	100.4%	102.6%	100.0%	100.6%	99.8%	101.8%	100.0%	99.0%	97.4%	96.3%	CCCCC[C@H](O)c1ccc(N2C(=O)CC[C@@H]2CCCc2ccc(C(=O)OC[C@@H](O)CO)s2)cc1 [Formula (IIIa), (S)-2,3-dihydroxypropyl 5-(3-((S)-1-(4-((S)-1-hydroxyhexyl)phenyl)-5-oxopyrrolidin-2-yl)propyl)thiophene-2-carboxylate]
100.0%	100.1%	101.0%	101.6%	100.0%	100.1%	100.1%	98.6%	100.0%	99.3%	97.5%	95.6%	O=C(OC[C@@H](O)CO)c1ccc(CCC[C@@H]2[C@@H](CCc3cc(Cl)cc(Cl)c3)[C@H](O)C[C@H]2Cl)s1 [Standard]
